Measurements published in patent publication US20200405696A1, “INHIBITORS OF INDOLEAMINE 2,3-DIOXYGENASE AND/OR TRYPTOPHAN 2,3-DIOXYGENASE” (IDORSIA PHARMACEUTICALS LTD, priority 2018, published 2020).

Columns and labels:
[1] = biological target: T1, Recombinant full-length human IDO1 (Homo sapiens, UniProt P14902); assay: IDO1 enzymatic assay (NFK quantified by LCMS); assay type: biochemical; conditions: 2 nM enzyme, 5 μM L-tryptophan, pH6.5, 30 minutes pre-incubation at RT; mean values when measured multiple times; read-out: hIDO activity (IC50 in nM)
T1 construct: Recombinant full-length human IDO1 with a N-terminal hexahistidine tag; hexahistidine (His6) (N); made in house; host or cells: E. coli
Summary of the method: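 His-tagged human IDO1 (2 nM) in pH 6.5 phosphate buffer with ascorbate, methylene blue and catalase was preincubated with compound (10 μM–0.5 nM, 0.6% DMSO) for 30 min at RT. The reaction then ran with 5 μM L-Trp for 30 min. NFK was measured by LCMS against a d5-Trp standard, and IC50 was obtained by four-parameter fit.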

[2] = biological target: T2, Recombinant human TDO comprising amino acids 19-407 (Homo sapiens, UniProt P48775); assay: TDO2 enzymatic assay (NFK quantified by LCMS); assay type: biochemical; conditions: 15 nM enzyme, 200 μM L-tryptophan, pH7, 30 minutes pre-incubation at RT; mean values when measured multiple times; read-out: hTDO activity (IC50 in nM)
T2 construct: Recombinant human TDO comprising amino acids 19-407 with a N-terminal hexahistidine tag; hexahistidine (His6) (N); made in house; host or cells: E. coli
Summary of the method: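 NFK formed over 30 min at RT from 200 μM L-tryptophan was measured by LCMS, normalized to d5-tryptophan, after compound (0.5 nM–10 μM, duplicates, 0.6% DMSO) was preincubated 30 min with 15 nM recombinant His-tagged TDO 19-407 in phosphate buffer pH 7. IC50 from four-parameter logistic fit; repeats averaged.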

T1 sequence (P14902 whole entry): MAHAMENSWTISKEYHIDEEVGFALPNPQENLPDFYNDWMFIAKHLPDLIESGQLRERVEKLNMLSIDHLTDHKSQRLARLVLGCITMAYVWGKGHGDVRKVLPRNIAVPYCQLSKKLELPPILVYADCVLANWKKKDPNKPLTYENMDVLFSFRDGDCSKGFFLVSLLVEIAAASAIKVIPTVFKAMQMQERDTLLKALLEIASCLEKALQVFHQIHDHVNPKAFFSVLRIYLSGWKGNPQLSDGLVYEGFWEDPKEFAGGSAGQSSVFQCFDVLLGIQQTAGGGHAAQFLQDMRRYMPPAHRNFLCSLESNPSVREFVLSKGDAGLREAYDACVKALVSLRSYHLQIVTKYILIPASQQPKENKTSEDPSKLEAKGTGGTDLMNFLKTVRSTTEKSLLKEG
T2 sequence (P48775 19-406 limits assumed): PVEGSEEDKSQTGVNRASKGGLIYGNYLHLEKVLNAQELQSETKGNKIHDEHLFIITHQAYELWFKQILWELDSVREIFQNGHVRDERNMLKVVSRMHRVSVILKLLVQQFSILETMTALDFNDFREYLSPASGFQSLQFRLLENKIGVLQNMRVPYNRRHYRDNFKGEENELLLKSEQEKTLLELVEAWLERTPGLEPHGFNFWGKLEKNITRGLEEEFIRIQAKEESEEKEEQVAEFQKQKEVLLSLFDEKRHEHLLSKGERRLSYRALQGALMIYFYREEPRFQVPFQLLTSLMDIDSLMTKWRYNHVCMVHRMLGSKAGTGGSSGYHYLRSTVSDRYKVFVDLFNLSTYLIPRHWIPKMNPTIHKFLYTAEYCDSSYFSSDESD

SMILES | IC50 [1] | IC50 [2]
COc1ccc(-n2cc(C(O)c3c(C4=CCCC4)sc4cncn34)nn2)cc1 (racemic) [Example 259, rac-(2-(Cyclopent-1-enyl)-imidazo[5,1-b]thiazol-3-yl)-[1-(4-methoxy-phenyl)-1H-[1,2,3]triazol-4-yl]-methanol] | 85.6 nM | > 10200 nM
OC(c1cnn(-c2cccnc2)c1)c1c(C2CC2)sc2cncn12 (racemic) [Example 260, rac-(2-Cyclopropyl-imidazo[5,1-b]thiazol-3-yl)-(1-pyridin-3-yl-1H-pyrazol-4-yl)-methanol] | 43.2 nM | 6510 nM
COc1ccc(-n2cc(C(O)c3c(C)sc4cncn34)nn2)cc1 (racemic) [Example 261, rac-[1-(4-Methoxy-phenyl)-1H-[1,2,3]triazol-4-yl]-(2-methyl-imidazo[5,1-b]thiazol-3-yl)-methanol] | 51.7 nM | > 10200 nM
COc1ccc(-n2cc(C(O)c3c(C=C(C)C)sc4cncn34)nn2)cc1 (racemic) [Example 262, rac-[1-(4-Methoxy-phenyl)-1H-[1,2,3]triazol-4-yl]-[2-(2-methyl-propenyl)-imidazo[5,1-b]thiazol-3-yl]-methanol] | 83.2 nM | > 10200 nM
Oc1ccc(-n2cc(C(O)c3c(-c4ccccc4)sc4cncn34)nn2)cc1Cl (racemic) [Example 264, rac-2-Chloro-4-{4-[hydroxy-(2-phenyl-imidazo[5,1-b]thiazol-3-yl)-methyl]-[1,2,3]triazol-1-yl}-phenol] | 93.9 nM | 5890 nM
OC(c1cn(-c2ccc(OCC3CC3)c(Cl)c2)nn1)c1c(-c2ccccc2)sc2cncn12 (racemic) [Example 265, rac-[1-(3-Chloro-4-cyclopropylmethoxy-phenyl)-1H-[1,2,3]triazol-4-yl]-(2-phenyl-imidazo[5,1-b]thiazol-3-yl)-methanol] | 442 nM | > 10200 nM
OC(c1cn(-c2ccc(OCC3(F)COC3)c(Cl)c2)nn1)c1c(-c2ccccc2)sc2cncn12 (racemic) [Example 266, rac-{1-[3-Chloro-4-(3-fluoro-oxetan-3-ylmethoxy)-phenyl]-1H-[1,2,3]triazol-4-yl}-(2-phenyl-imidazo[5,1-b]thiazol-3-yl)-methanol] | 179 nM | > 10200 nM
OCCCOc1ccc(-n2cc(C(O)c3c(-c4ccccc4)sc4cncn34)nn2)cc1Cl (racemic) [Example 267, rac-3-(2-Chloro-4-{4-[hydroxy-(2-phenyl-imidazo[5,1-b]thiazol-3-yl)-methyl]-[1,2,3]triazol-1-yl}-phenoxy)-propan-1-ol] | 122 nM | > 10200 nM
CC(C)(O)CCOc1ccc(-n2cc(C(O)c3c(-c4ccccc4)sc4cncn34)nn2)cc1Cl (racemic) [Example 268, rac-4-(2-Chloro-4-{4-[hydroxy-(2-phenyl-imidazo[5,1-b]thiazol-3-yl)-methyl]-[1,2,3]triazol-1-yl}-phenoxy)-2-methyl-butan-2-ol] | 210 nM | > 10200 nM
COc1ccc(-n2cc(C(O)c3c(/C=C/C4CC4)sc4cncn34)nn2)cc1 (racemic) [Example 270, rac-[2-((E)-2-Cyclopropyl-vinyl)-imidazo[5,1-b]thiazol-3-yl]-[1-(4-methoxy-phenyl)-1H-[1,2,3]triazol-4-yl]-methanol] | 71.5 nM | > 10200 nM
CCCC=Cc1sc2cncn2c1C(O)c1cn(-c2ccc(OC)cc2)nn1 (racemic) [Example 271, rac-[1-(4-Methoxy-phenyl)-1H-[1,2,3]triazol-4-yl]-[((E)-2-(pent-1-enyl))-imidazo[5,1-b]thiazol-3-yl]-methanol] | 225 nM | > 10200 nM
COc1ccc(-n2cc(C(O)c3c(-c4cnn(C)c4)sc4cncn34)nn2)cc1 (racemic) [Example 273, rac-[1-(4-Methoxy-phenyl)-1H-[1,2,3]triazol-4-yl]-[2-(1-methyl-1H-pyrazol-4-yl)-imidazo[5,1-b]thiazol-3-yl]-methanol] | 43.6 nM | > 10200 nM
COc1ccc(-n2nnc(C(O)c3c(C4CC4)sc4cncn34)c2C(C)C)cc1 (racemic) [Example 280, rac-(2-Cyclopropyl-imidazo[5,1-b]thiazol-3-yl)-[5-isopropyl-1-(4-methoxy-phenyl)-1H-[1,2,3]triazol-4-yl]-methanol] | 53.2 nM | > 10200 nM
CC(C)C(=O)Nc1ccc(-n2cc(C(O)c3c(C4CC4)sc4cncn34)nn2)cc1Cl (racemic) [Example 284, rac-N-(2-Chloro-4-{4-[(2-cyclopropyl-imidazo[5,1-b]thiazol-3-yl)-hydroxy-methyl]-[1,2,3]triazol-1-yl}-phenyl)-isobutyramide] | 273 nM | > 10200 nM
COc1ccc(-n2cc(C(O)c3c(-c4ccc(F)cc4)sc4cncn34)nn2)cc1 (racemic) [Example 286, rac-[2-(4-Fluoro-phenyl)-imidazo[5,1-b]thiazol-3-yl]-[1-(4-methoxy-phenyl)-1H-[1,2,3]triazol-4-yl]-methanol] | 704 nM | > 10200 nM
COc1ccc(-n2cc(C(O)c3c(-c4ccccc4F)sc4cncn34)nn2)cc1 (racemic) [Example 287, rac-[2-(2-Fluoro-phenyl)-imidazo[5,1-b]thiazol-3-yl]-[1-(4-methoxy-phenyl)-1H-[1,2,3]triazol-4-yl]-methanol] | 88.8 nM | 8670 nM

The next compounds have a lower IC50 [1] than those just listed; values first:

IC50 [1] | IC50 [2] | SMILES
36 nM | > 10200 nM | COc1ccc(-n2nnc(C(O)c3c(C4CC4)sc4cncn34)c2C(C)(C)C)cc1 (racemic) [Example 274, rac-[5-tert-Butyl-1-(4-methoxy-phenyl)-1H-[1,2,3]triazol-4-yl]-(2-cyclopropyl-imidazo[5,1-b]thiazol-3-yl)-methanol]
34 nM | > 10200 nM | OC(c1cn(-c2ccc3c(Cl)n[nH]c3c2)nn1)c1c(C2CC2)sc2cncn12 (racemic) [Example 258, rac-[1-(3-Chloro-1H-indazol-6-yl)-1H-[1,2,3]triazol-4-yl]-(2-cyclopropyl-imidazo[5,1-b]thiazol-3-yl)-methanol]
26.3 nM | > 10200 nM | CNS(=O)(=O)Nc1ccc(-n2cc(C(O)c3c(C4CC4)sc4cncn34)nn2)cc1 (racemic) [Example 256, rac-4-{4-[(2-Cyclopropyl-imidazo[5,1-b]thiazol-3-yl)-hydroxy-methyl]-[1,2,3]triazol-1-yl}-((N-methylsulfamoyl)amino)-benzene]
20.5 nM | 830 nM | CC=Cc1sc2cncn2c1C(O)c1cn(-c2ccc(OC)cc2)nn1 (racemic) [Example 263, rac-[1-(4-Methoxy-phenyl)-1H-[1,2,3]triazol-4-yl]-[((E)-2-(prop-1-enyl))-imidazo[5,1-b]thiazol-3-yl]-methanol]
17.5 nM | > 10200 nM | COc1ccc(-n2cc(C(O)c3c(C(C)(F)F)sc4cncn34)nn2)cc1 (racemic) [Example 257, rac-[2-(1,1-Difluoro-ethyl)-imidazo[5,1-b]thiazol-3-yl]-[1-(4-methoxy-phenyl)-1H-[1,2,3]triazol-4-yl]-methanol]
15.1 nM | > 10200 nM | COc1c(F)cc(-n2cc(C(O)c3c(C4CC4)sc4cncn34)nn2)cc1Cl (racemic) [Example 288, rac-[1-(3-Chloro-5-fluoro-4-methoxy-phenyl)-1H-[1,2,3]triazol-4-yl]-(2-cyclopropyl-imidazo[5,1-b]thiazol-3-yl)-methanol]
13.7 nM | 9020 nM | COc1ccc(-n2nnc(C(O)c3c(C4CC4)sc4cncn34)c2C2CC2)cc1 (racemic) [Example 281, rac-(2-Cyclopropyl-imidazo[5,1-b]thiazol-3-yl)-[5-cyclopropyl-1-(4-methoxy-phenyl)-1H-[1,2,3]triazol-4-yl]-methanol]
13.6 nM | > 10200 nM | CCc1c(C(O)c2c(C3CC3)sc3cncn23)nnn1-c1ccc(OC)cc1 (racemic) [Example 279, rac-(2-Cyclopropyl-imidazo[5,1-b]thiazol-3-yl)-[5-ethyl-1-(4-methoxy-phenyl)-1H-[1,2,3]triazol-4-yl]-methanol]
8.71 nM | > 10200 nM | Nc1ccc(-n2cc(C(O)c3c(C4CC4)sc4cncn34)nn2)cc1Cl (racemic) [Example 278, rac-[1-(4-Amino-3-chloro-phenyl)-1H-[1,2,3]triazol-4-yl]-(2-cyclopropyl-imidazo[5,1-b]thiazol-3-yl)-methanol]
7.91 nM | 6470 nM | CCc1sc2cncn2c1C(O)c1cn(-c2ccc(OC)cc2)nn1 (racemic) [Example 285, rac-(2-Ethyl-imidazo[5,1-b]thiazol-3-yl)-[1-(4-methoxy-phenyl)-1H-[1,2,3]triazol-4-yl]-methanol]
7.26 nM | > 10200 nM | C=C(C)c1sc2cncn2c1C(O)c1cn(-c2ccc(OC)cc2)nn1 (racemic) [Example 269, rac-(2-Isopropenyl-imidazo[5,1-b]thiazol-3-yl)-[1-(4-methoxy-phenyl)-1H-[1,2,3]triazol-4-yl]-methanol]
4.44 nM | 3840 nM | CCc1sc2cncn2c1C(O)c1cn(-c2ccc(N)c(Cl)c2)nn1 (racemic) [Example 272, rac-[1-(4-Amino-3-chloro-phenyl)-1H-[1,2,3]triazol-4-yl]-(2-ethyl-imidazo[5,1-b]thiazol-3-yl)-methanol]
